Measurements taken from ChEMBL document CHEMBL5143685, “Valorisation of the diterpene podocarpic acid - Antibiotic and antibiotic enhancing activities of polyamine conjugates” (Bioorg Med Chem, 2022).

Tests used:
Escherichia coli [1] = assay: Antibiotic adjuvant activity against Escherichia coli ATCC 25922 assessed as erythromycin MIC measured after 18 hrs in presence of erythromycin; assay type: functional
Pseudomonas aeruginosa [2] = assay: Antibiotic adjuvant activity against Pseudomonas aeruginosa ATCC 27853 assessed as doxycycline MIC measured after 18 hrs in presence of doxycycline; assay type: functional
[3] = Cytotoxicity against HEK293 cells assessed as cell growth inhibition measured after 20 hrs by resazurin dye based assay; assay type: toxicity; conditions: human
Cryptococcus neoformans = assay: Antifungal activity against Cryptococcus neoformans ATCC 208821 assessed as fungal growth inhibition incubated for 36 hrs by resazurin dye based analysis; assay type: functional
Escherichia coli [4] = assay: Antibacterial activity against Escherichia coli ATCC 25922 assessed as inhibition of bacterial growth measured after 18 hrs by resazurin dye based analysis; assay type: functional
Pseudomonas aeruginosa [5] = assay: Antibacterial activity against Pseudomonas aeruginosa ATCC 27853 assessed as inhibition of bacterial growth measured after 18 hrs by resazurin dye based analysis; assay type: functional
Acinetobacter baumannii = assay: Antibacterial activity against Acinetobacter baumannii ATCC 19606 assessed as inhibition of bacterial growth measured after 18 hrs by resazurin dye based analysis; assay type: functional
Staphylococcus aureus = assay: Antibacterial activity against methicillin-resistant Staphylococcus aureus ATCC 43300 assessed as inhibition of bacterial growth measured after 18 hrs by resazurin dye based analysis; assay type: functional
Candida albicans = assay: Antifungal activity against Candida albicans ATCC 90028 assessed as fungal growth inhibition incubated for 36 hrs by resazurin dye based analysis; assay type: functional
Klebsiella pneumoniae = assay: Antibacterial activity against Klebsiella pneumoniae ATCC 700603 assessed as inhibition of bacterial growth measured after 18 hrs by resazurin dye based analysis; assay type: functional

Row | SMILES | MIC (Escherichia coli [1]) | MIC (Pseudomonas aeruginosa [2]) | IC50 at 20 h [3] | MIC (Cryptococcus neoformans) | MIC (Escherichia coli [4]) | MIC (Pseudomonas aeruginosa [5]) | MIC (Acinetobacter baumannii) | MIC (Staphylococcus aureus) | MIC (Candida albicans) | MIC (Klebsiella pneumoniae)
1 | C[C@]1(C(=O)NCCCNCCCCN)CCC[C@]2(C)c3cc(OC(=O)NCCCNCCCCN)ccc3CC[C@@H]12.O=C(O)C(F)(F)F.O=C(O)C(F)(F)F.O=C(O)C(F)(F)F.O=C(O)C(F)(F)F | 25 µM | 25 µM | > 31.1 µM | > 31.1 µM | > 31.1 µM | > 31.1 µM | > 31.1 µM | > 31.1 µM | > 31.1 µM | > 31.1 µM
2 | C[C@]1(C(=O)NCCCNCCCCCCCCCCN)CCC[C@]2(C)c3cc(OC(=O)NCCCNCCCCCCCCCCN)ccc3CC[C@@H]12.O=C(O)C(F)(F)F.O=C(O)C(F)(F)F.O=C(O)C(F)(F)F.O=C(O)C(F)(F)F | 3.12 µM | 50 µM | 20.6 µM | > 26.7 µM | > 26.7 µM | > 26.7 µM | > 26.7 µM | 26.7 µM | > 26.7 µM | > 26.7 µM
3 | C[C@]1(C(=O)NCCCNCCCCCCCCCCCCN)CCC[C@]2(C)c3cc(OC(=O)NCCCNCCCCCCCCCCCCN)ccc3CC[C@@H]12.O=C(O)C(F)(F)F.O=C(O)C(F)(F)F.O=C(O)C(F)(F)F.O=C(O)C(F)(F)F |  | 50 µM | 0.33 µM | > 25.5 µM | ≤ 0.2 µM | > 25.5 µM | 6.38 µM | ≤ 0.2 µM | 25.5 µM | 12.8 µM
4 | C[C@]1(C(=O)NCCCNCCCCCCCCCCCCNCCCNC(=O)[C@@]2(C)CCC[C@]3(C)c4cc(O)ccc4CC[C@@H]23)CCC[C@]2(C)c3cc(O)ccc3CC[C@@H]12.O=C(O)C(F)(F)F.O=C(O)C(F)(F)F |  |  | > 30.3 µM | ≤ 0.24 µM | > 30.3 µM | > 30.3 µM | > 30.3 µM | ≤ 0.24 µM | 7.58 µM | > 30.3 µM
5 | C[C@]1(C(=O)NCCCNCCCCCCCCNCCCNC(=O)[C@@]2(C)CCC[C@]3(C)c4cc(O)ccc4CC[C@@H]23)CCC[C@]2(C)c3cc(O)ccc3CC[C@@H]12.O=C(O)C(F)(F)F.O=C(O)C(F)(F)F |  |  | 18.1 µM | 32 µM | 32 µM | > 32 µM | 32 µM | 8 µM | 32 µM | > 32 µM
6 | C[C@]1(C(=O)NCCCNCCCCCCCN)CCC[C@]2(C)c3cc(OC(=O)NCCCNCCCCCCCN)ccc3CC[C@@H]12.O=C(O)C(F)(F)F.O=C(O)C(F)(F)F.O=C(O)C(F)(F)F.O=C(O)C(F)(F)F | 50 µM |  | > 28.7 µM | > 29.7 µM | > 29.7 µM | > 29.7 µM | > 29.7 µM | > 28.7 µM | > 29.7 µM | > 29.7 µM
7 | COC(=O)[C@@]1(C)CCC[C@]2(C)c3cc(OC(=O)CCCNCCCCCCCCNCCCNC(=O)Oc4ccc5c(c4)[C@@]4(C)CCC[C@](C)(C(=O)OC)[C@@H]4CC5)ccc3CC[C@@H]12.O=C(O)C(F)(F)F.O=C(O)C(F)(F)F |  |  | > 28.7 µM | 0.45 µM | > 28.7 µM | > 28.7 µM | > 28.7 µM | ≤ 0.22 µM | ≤ 0.22 µM | > 28.7 µM
8 | C[C@]1(C(=O)O)CCC[C@]2(C)c3cc(OC(=O)CCCNCCCCCCCCNCCCNC(=O)Oc4ccc5c(c4)[C@@]4(C)CCC[C@](C)(C(=O)O)[C@@H]4CC5)ccc3CC[C@@H]12.O=C(O)C(F)(F)F.O=C(O)C(F)(F)F |  |  | > 29.4 µM | ≤ 0.23 µM | > 29.4 µM | > 29.4 µM | > 29.4 µM | > 29.4 µM | 14.7 µM | > 29.4 µM
9 | C[C@]1(C(=O)O)CCC[C@]2(C)c3cc(OC(=O)NCCCNCCCCCCN)ccc3CC[C@@H]12.O=C(O)C(F)(F)F.O=C(O)C(F)(F)F |  |  | > 45.6 µM | > 45.6 µM | > 45.6 µM | > 45.6 µM | > 45.6 µM | > 45.6 µM | > 45.6 µM | > 45.6 µM
10 | C[C@]1(C(=O)O)CCC[C@]2(C)c3cc(OC(=O)CCCNCCCCCCCNCCCNC(=O)Oc4ccc5c(c4)[C@@]4(C)CCC[C@](C)(C(=O)O)[C@@H]4CC5)ccc3CC[C@@H]12.O=C(O)C(F)(F)F.O=C(O)C(F)(F)F |  |  | > 29.8 µM | 7.45 µM | > 29.8 µM | > 29.8 µM | > 29.8 µM | > 29.8 µM | 29.8 µM | > 29.8 µM
11 | C[C@]1(C(=O)O)CCC[C@]2(C)c3cc(OC(=O)NCCCNCCCCCCCCCCCCN)ccc3CC[C@@H]12.O=C(O)C(F)(F)F.O=C(O)C(F)(F)F |  |  | > 32.8 µM | > 32.8 µM | > 32.8 µM | > 32.8 µM | > 32.8 µM | > 32.8 µM | 32.8 µM | > 32.8 µM
